Source: publication PMC8592510 (CPT: Pharmacometrics & Systems Pharmacology, 2021)

Key:
[1] = cited from earlier work
[2] = format: in vivo, human; details: covariate analysis, allometric scaling principles
[3] = Bayesian feedback population PK analyses of phase III data; format: in vivo; details: human, plasma, oral
[4] = cited from earlier work; remark: listed apart in the source
CYP3A = details: cited from earlier work
[5] = cited from earlier work; remark: listed apart in the source
[6] = Logistic regression exposure-safety analyses; details: alectinib 300 or 600 mg b.i.d.

In the case of `C[C@@H](Oc1cc(-c2cnn(C3CCNCC3)c2)cnc1N)c1c(Cl)ccc(F)c1Cl` [crizotinib], the “Frequency of Grade ≥3 AEs and SAEs, crizotinib versus alectinib” value ([1]; ALEX study) is given as “more frequent”.

In the case of `CCc1cc2c(cc1N1CCC(N3CCOCC3)CC1)C(C)(C)c1[nH]c3cc(C#N)ccc3c1C2=O` [alectinib], the “Body weight effect on clearance and volume” value [2] is given as “significant body weight effect”, the half-life [3] is given as 34 h and the Blood-brain barrier penetration [4] is given as “can penetrate the blood–brain barrier”. For the same compound, the “Enzyme involved in metabolism” value (CYP3A) was “CYP3A is the main enzyme”, the “First-pass metabolism by cytochrome P450 (CYP) 3A” value (CYP3A) was “limited” and the Lipophilicity [5] was “lipophilic”. For the same compound, the “Safety profile compared with crizotinib” value ([1]; J-ALEX, ALEX and ALESIA) was “favorable safety profile compared with crizotinib”, the “Effect of Caverage on severity of the first event for SAEs or Grade ≥3 AEs” value [6] was “no apparent effect” and the “Relationship between Caverage and first occurrence of Grade ≥3 AEs” value ([6]; J-ALEX, ALEX, ALESIA) was “no significant relationship”. For the same compound, the “Relationship between combined alectinib and M4 molar concentration (Caverage) and first occurrence of SAEs” value ([6]; J-ALEX, ALEX, ALESIA) was “no significant relationship”.
